Numbers after ± are expanded uncertainties.
Assay: molar heat capacity at constant pressure
Conditions: 101.33 kPa, Liquid

SMILES	molar heat capacity at constant pressure (284.15 K)	molar heat capacity at constant pressure (286.65 K)	molar heat capacity at constant pressure (289.15 K)	molar heat capacity at constant pressure (291.65 K)	molar heat capacity at constant pressure (294.15 K)	molar heat capacity at constant pressure (296.65 K)	molar heat capacity at constant pressure (299.15 K)	molar heat capacity at constant pressure (301.65 K)	molar heat capacity at constant pressure (304.15 K)	molar heat capacity at constant pressure (306.65 K)	molar heat capacity at constant pressure (309.15 K)	molar heat capacity at constant pressure (311.65 K)	molar heat capacity at constant pressure (314.15 K)	molar heat capacity at constant pressure (316.65 K)	molar heat capacity at constant pressure (319.15 K)	molar heat capacity at constant pressure (321.65 K)	molar heat capacity at constant pressure (324.15 K)	molar heat capacity at constant pressure (326.65 K)	molar heat capacity at constant pressure (329.15 K)	molar heat capacity at constant pressure (331.65 K)	also measured
CCCCCCCCCCCl [1-chlorodecane]	328.57 ± 1.6 J/K/mol	329.82 ± 1.6 J/K/mol	331 ± 1.7 J/K/mol	332.01 ± 1.7 J/K/mol	333.14 ± 1.7 J/K/mol	334.13 ± 1.7 J/K/mol	335.39 ± 1.7 J/K/mol	336.61 ± 1.7 J/K/mol	337.47 ± 1.7 J/K/mol	338.66 ± 1.7 J/K/mol	339.83 ± 1.7 J/K/mol	341.39 ± 1.7 J/K/mol	342.42 ± 1.7 J/K/mol	343.41 ± 1.7 J/K/mol	345.04 ± 1.7 J/K/mol	346.36 ± 1.7 J/K/mol	346.99 ± 1.7 J/K/mol	348.75 ± 1.7 J/K/mol	350.01 ± 1.8 J/K/mol	351.31 ± 1.8 J/K/mol	molar heat capacity at constant pressure (334.15 K): 352.76 ± 1.8 J/K/mol; molar heat capacity at constant pressure (336.65 K): 353.39 ± 1.8 J/K/mol; molar heat capacity at constant pressure (339.15 K): 355.52 ± 1.8 J/K/mol; molar heat capacity at constant pressure (341.65 K): 356.17 ± 1.8 J/K/mol; molar heat capacity at constant pressure (344.15 K): 357.74 ± 1.8 J/K/mol; molar heat capacity at constant pressure (346.65 K): 358.38 ± 1.8 J/K/mol; molar heat capacity at constant pressure (349.15 K): 359.65 ± 1.8 J/K/mol; molar heat capacity at constant pressure (351.65 K): 361.49 ± 1.8 J/K/mol; molar heat capacity at constant pressure (353.15 K): 362.49 ± 1.8 J/K/mol
CCCCCCCCl [1-chloroheptane]	240.95 ± 1.2 J/K/mol	241.75 ± 1.2 J/K/mol	242.67 ± 1.2 J/K/mol	243.4 ± 1.2 J/K/mol	244.29 ± 1.2 J/K/mol	245.23 ± 1.2 J/K/mol	246.05 ± 1.2 J/K/mol	247.03 ± 1.2 J/K/mol	247.61 ± 1.2 J/K/mol	248.53 ± 1.2 J/K/mol	249.54 ± 1.2 J/K/mol	250.65 ± 1.2 J/K/mol	251.6 ± 1.3 J/K/mol	252.2 ± 1.3 J/K/mol	253.36 ± 1.3 J/K/mol	254.42 ± 1.3 J/K/mol	254.76 ± 1.3 J/K/mol	256.19 ± 1.3 J/K/mol	257.57 ± 1.3 J/K/mol	258.06 ± 1.3 J/K/mol	molar heat capacity at constant pressure (334.15 K): 258.84 ± 1.3 J/K/mol; molar heat capacity at constant pressure (336.65 K): 259.88 ± 1.3 J/K/mol; molar heat capacity at constant pressure (339.15 K): 261.01 ± 1.3 J/K/mol; molar heat capacity at constant pressure (341.65 K): 261.55 ± 1.3 J/K/mol; molar heat capacity at constant pressure (344.15 K): 262.9 ± 1.3 J/K/mol; molar heat capacity at constant pressure (346.65 K): 263.26 ± 1.3 J/K/mol; molar heat capacity at constant pressure (349.15 K): 264.3 ± 1.3 J/K/mol; molar heat capacity at constant pressure (351.65 K): 266.04 ± 1.3 J/K/mol; molar heat capacity at constant pressure (353.15 K): 266.51 ± 1.3 J/K/mol
CCCCCCCl [1-chlorohexane]	212.36 ± 1.1 J/K/mol	213.23 ± 1.1 J/K/mol	213.91 ± 1.1 J/K/mol	214.63 ± 1.1 J/K/mol	215.4 ± 1.1 J/K/mol	216.12 ± 1.1 J/K/mol	216.95 ± 1.1 J/K/mol	217.75 ± 1.1 J/K/mol	218.44 ± 1.1 J/K/mol	219.22 ± 1.1 J/K/mol	219.99 ± 1.1 J/K/mol	221 ± 1.1 J/K/mol	221.78 ± 1.1 J/K/mol	222.49 ± 1.1 J/K/mol	223.43 ± 1.1 J/K/mol	224.31 ± 1.1 J/K/mol	224.7 ± 1.1 J/K/mol	226.02 ± 1.1 J/K/mol	227.13 ± 1.1 J/K/mol	228.86 ± 1.1 J/K/mol	molar heat capacity at constant pressure (334.15 K): 228.99 ± 1.1 J/K/mol; molar heat capacity at constant pressure (336.65 K): 229.44 ± 1.1 J/K/mol; molar heat capacity at constant pressure (339.15 K): 230.06 ± 1.1 J/K/mol; molar heat capacity at constant pressure (341.65 K): 231.22 ± 1.2 J/K/mol; molar heat capacity at constant pressure (344.15 K): 231.83 ± 1.2 J/K/mol; molar heat capacity at constant pressure (346.65 K): 232.32 ± 1.2 J/K/mol; molar heat capacity at constant pressure (349.15 K): 233.18 ± 1.2 J/K/mol; molar heat capacity at constant pressure (351.65 K): 234.56 ± 1.2 J/K/mol; molar heat capacity at constant pressure (353.15 K): 235.17 ± 1.2 J/K/mol
CCCCCCCCCl [1-chlorooctane]	269.76 ± 1.4 J/K/mol	270.79 ± 1.4 J/K/mol	271.83 ± 1.4 J/K/mol	272.66 ± 1.4 J/K/mol	273.66 ± 1.4 J/K/mol	274.53 ± 1.4 J/K/mol	275.61 ± 1.4 J/K/mol	276.52 ± 1.4 J/K/mol	277.29 ± 1.4 J/K/mol	278.37 ± 1.4 J/K/mol	279.28 ± 1.4 J/K/mol	280.5 ± 1.4 J/K/mol	281.58 ± 1.4 J/K/mol	282.47 ± 1.4 J/K/mol	283.79 ± 1.4 J/K/mol	284.92 ± 1.4 J/K/mol	285.45 ± 1.4 J/K/mol	286.81 ± 1.4 J/K/mol	288.43 ± 1.4 J/K/mol	289.95 ± 1.4 J/K/mol	molar heat capacity at constant pressure (334.15 K): 290.13 ± 1.4 J/K/mol; molar heat capacity at constant pressure (336.65 K): 291.34 ± 1.5 J/K/mol; molar heat capacity at constant pressure (339.15 K): 291.91 ± 1.5 J/K/mol; molar heat capacity at constant pressure (341.65 K): 293.56 ± 1.5 J/K/mol; molar heat capacity at constant pressure (344.15 K): 294.16 ± 1.5 J/K/mol; molar heat capacity at constant pressure (346.65 K): 294.82 ± 1.5 J/K/mol; molar heat capacity at constant pressure (349.15 K): 295.79 ± 1.5 J/K/mol; molar heat capacity at constant pressure (351.65 K): 297.21 ± 1.5 J/K/mol; molar heat capacity at constant pressure (353.15 K): 298.14 ± 1.5 J/K/mol

Source: the NIST ThermoML archive (doi:10.1021/je049652j)
